The record followed here is US10125129B2 (priority 2016, dated 2018).

T1 sequence (P35372 whole entry): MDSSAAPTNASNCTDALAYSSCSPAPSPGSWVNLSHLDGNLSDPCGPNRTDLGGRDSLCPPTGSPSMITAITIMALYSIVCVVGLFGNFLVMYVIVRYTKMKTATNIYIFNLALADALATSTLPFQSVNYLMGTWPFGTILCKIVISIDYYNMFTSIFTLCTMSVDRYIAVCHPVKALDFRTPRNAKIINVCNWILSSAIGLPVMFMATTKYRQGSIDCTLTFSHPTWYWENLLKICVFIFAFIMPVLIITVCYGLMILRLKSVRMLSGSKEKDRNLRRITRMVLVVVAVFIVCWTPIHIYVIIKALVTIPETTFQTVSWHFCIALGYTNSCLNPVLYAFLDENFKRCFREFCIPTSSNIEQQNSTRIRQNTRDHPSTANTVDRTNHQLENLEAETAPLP

The first test addresses T1, μ opioid receptor (MOR) (Homo sapiens, UniProt P35372).
T1 construct: expressed in transfected cells
The experiment in a line: cell-based. In kind it is cell-based. To be noted: EC50.
Consider `COC(=O)[C@@H]1C=C(OC(=O)c2cscn2)C(=O)[C@H]2[C@@]1(C)CC[C@H]1C(=O)O[C@H](c3ccoc3)C[C@]21C` [Table 3 Entry 7, (2S,4aR,6aR,7R,10aR,10bR)-2-(Furan-3-yl)-7-(methoxycarbonyl)-6a,10b-dimethyl-4,10-dioxo-2,4,4a,5,6,6a,7,10,10a,10b-decahydro-1H-benzo[f]isochromen-9-yl thiazole-4-carboxylate], for which the concentration giving a half-maximal response (EC50) worked out at 8 ± 3 nM. Same read-out and setting: to `COC(=O)[C@@H]1C=C(OC(=O)c2cncnc2)C(=O)[C@H]2[C@@]1(C)CC[C@H]1C(=O)O[C@H](c3ccoc3)C[C@]21C` [Table 3 Entry 11, (2S,4aR,6aR,7R,10aR,10bR)-2-(Furan-3-yl)-7-(methoxycarbonyl)-6a,10b-dimethyl-4,10-dioxo-2,4,4a,5,6,6a,7,10,10a,10b-decahydro-1H-benzo[f]isochromen-9-yl pyrimidine-5-carboxylate] belongs 6 ± 1 nM; to `COC(=O)[C@@H]1C=C(OC(=O)c2cc3ccccc3s2)C(=O)[C@H]2[C@@]1(C)CC[C@H]1C(=O)O[C@H](c3ccoc3)C[C@]21C` [Table 3 Entry 13], 6 ± 1 nM.

For `COC(=O)[C@@H]1C=C(OC(=O)c2cocn2)C(=O)[C@H]2[C@@]1(C)CC[C@H]1C(=O)O[C@H](c3ccoc3)C[C@]21C` [Table 3 Entry 9, (2S,4aR,6aR,7R,10aR,10bR)-2-(Furan-3-yl)-7-(methoxycarbonyl)-6a,10b-dimethyl-4,10-dioxo-2,4,4a,5,6,6a,10,10a,10b-decahydro-1H-benzo[f]isochromen-9-yl oxazole-4-carboxylate], it took 30 ± 2 nM to reach a half-maximal effect (EC50). `COC(=O)[C@@H]1C=C(OC(=O)/C=C/c2ccccc2)C(=O)[C@H]2[C@@]1(C)CC[C@H]1C(=O)O[C@H](c3ccoc3)C[C@]21C` [Table 3 Entry 6, (2S,4aR,6aR,7R,10aR,10bR)-Methyl 9-(cinnamoyloxy)-2-(furan-3-yl)-6a,10b-dimethyl-4,10-dioxo-2,4,4a,5,6,6a,7,10,10a,10b-decahydro-1Hbenzo[f]isochromene-7-carboxylate]: the EC50 turned out to be 30 ± 10 nM. Compound `COC(=O)[C@@H]1C=C(OC(=O)Cc2ccccc2)C(=O)[C@H]2[C@@]1(C)CC[C@H]1C(=O)O[C@H](c3ccoc3)C[C@]21C` [Table 3 Entry 4, (2S,4aR,6aR,7R,10aR,10bR)-Methyl 2-(furan-3-yl)-6a,10bdimethyl-4,10-dioxo-9-(2-phenylacetoxy)-2,4,4a,5,6,6a,7,10a,10b-decahydro-1Hbenzo[f]isochromene-7-carboxylate] gave a 50% effective concentration (EC50) of 130 ± 50 nM.

Still in this test, the particulars now being: Series 1 EC50.
Consider `COC(=O)[C@@H]1C[C@H](OC(=O)c2ccccc2Cl)C(=O)[C@H]2[C@@]1(C)CC[C@H]1C(=O)O[C@H](c3ccoc3)C[C@]21C` [Series 1 Entry 5, (2S,4aR,6aR,7R,9S,10aS,10bR)-Methyl 9-((2-chlorobenzoyl)oxy)-2-(furan-3-yl)-6a,10b-dimethyl-4,10-dioxododecahydro-1H-benzo[f]isochromene-7-carboxylate], for which the EC50 amounted to 3400 ± 200 nM.

Compound `COC(=O)[C@@H]1C[C@H](OC(=O)c2cccc(F)c2)C(=O)[C@H]2[C@@]1(C)CC[C@H]1C(=O)O[C@H](c3ccoc3)C[C@]21C` [Series 1 Entry 9, (2S,4aR,6aR,7R,9S,10aS,10bR)-Methyl 9-((3-fluorobenzoyl)oxy)-2-(furan-3-yl)-6a,10b-dimethyl-4,10-dioxododecahydro-1H-benzo[f]isochromene-7-carboxylate] displayed an EC50 of 460 ± 80 nM.

In the case of `COC(=O)[C@@H]1C[C@H](OC(=O)c2ccccc2F)C(=O)[C@H]2[C@@]1(C)CC[C@H]1C(=O)O[C@H](c3ccoc3)C[C@]21C` [Series 1 Entry 8, (2S,4aR,6aR,7R,9S,10aS,10bR)-Methyl 9-((2-fluorobenzoyl)oxy)-2-(furan-3-yl)-6a,10b-dimethyl-4,10-dioxododecahydro-1H-benzo[f]isochromene-7-carboxylate], the concentration for a half-maximal effect (EC50) was determined as 400 ± 100 nM. On the same count and under the same terms, to `COC(=O)[C@@H]1C[C@H](OC(=O)c2ccc(C)cc2)C(=O)[C@H]2[C@@]1(C)CC[C@H]1C(=O)O[C@H](c3ccoc3)C[C@]21C` [Series 1 Entry 13, (2S,4aR,6aR,7R,9S,10aS,10bR)-Methyl 2-(furan-3-yl)-6a,10b-dimethyl-9-((4-methylbenzoyl)oxy)-4,10-dioxododecahydro-1H-benzo[f]isochromene-7-carboxylate] belongs 430 ± 10 nM. For the compound `COC(=O)[C@@H]1C[C@H](OC(=O)c2cccnc2)C(=O)[C@H]2[C@@]1(C)CC[C@H]1C(=O)O[C@H](c3ccoc3)C[C@]21C` [Series 1 Entry 18], a half-maximal response (EC50) required 240 ± 20 nM. Compound `COC(=O)[C@@H]1C[C@H](OC(=O)c2ccc(Cl)cc2)C(=O)[C@H]2[C@@]1(C)CC[C@H]1C(=O)O[C@H](c3ccoc3)C[C@]21C` [Series 1 Entry 7, (2S,4aR,6aR,7R,9S,10aS,10bR)-Methyl 9-((4-chlorobenzoyl)oxy)-2-(furan-3-yl)-6a,10b-dimethyl-4,10-dioxododecahydro-1H-benzo[f]isochromene-7-carboxylate] had a 50% effective concentration (EC50) of 700 ± 100 nM. On the same count and under the same terms, next, `COC(=O)[C@@H]1C[C@H](OC(=O)c2cccc(OC)c2)C(=O)[C@H]2[C@@]1(C)CC[C@H]1C(=O)O[C@H](c3ccoc3)C[C@]21C` [Series 1 Entry 15]: 330 ± 20 nM.

The same test, now with this note: Series 2 EC50.
Compound `COC(=O)[C@@H]1C=C(OC(=O)c2cccnc2)C(=O)[C@H]2[C@@]1(C)CC[C@H]1C(=O)O[C@H](c3ccoc3)C[C@]21C` [Series 2 Entry 18, (2S,4aR,6aR,7R,10aR,10bR)-2-(Furan-3-yl)-7-(methoxycarbonyl)-6a,10b-dimethyl-4,10-dioxo-2,4,4a,5,6,6a,7,10,10a,10b-decahydro-H-benzo[f]isochromen-9-yl nicotinate] yielded an EC50 of 3.3 ± 0.8 nM. The same measure, in the same setting: next, `COC(=O)[C@@H]1C=C(OC(=O)c2ccccc2OC)C(=O)[C@H]2[C@@]1(C)CC[C@H]1C(=O)O[C@H](c3ccoc3)C[C@]21C` [Series 2 Entry 14, (2S,4aR,6aR,7R,10aR,10bR)-Methyl 2-(furan-3-yl)-9-((2-methoxybenzoyl)oxy)-6a,10b-dimethyl-4,10-dioxo-2,4,4a,5,6,6a,7,10,10a,10b-decahydro-1H-benzo[f]isochromene-7-carboxylate]: 2000 ± 1000 nM; `COC(=O)[C@@H]1C=C(OC(=O)c2ccsc2)C(=O)[C@H]2[C@@]1(C)CC[C@H]1C(=O)O[C@H](c3ccoc3)C[C@]21C` [Series 2 Entry 21, (2S,4aR,6aR,7R,10aR,10bR)-Methyl 2-(furan-3-yl)-6a,10bdimethyl-4,10-dioxo-9-((thiophene-3-carbonyl)oxy)-2,4,4a,5,6,6a,7,10,10a,10b-decahydro-1H-benzo[f]isochromene-7-carboxylate]: 1.3 ± 0.9 nM.

Regarding `COC(=O)[C@@H]1C=C(OC(=O)c2ccccc2[N+](=O)[O-])C(=O)[C@H]2[C@@]1(C)CC[C@H]1C(=O)O[C@H](c3ccoc3)C[C@]21C` [Series 2 Entry 2, (2S,4aR,6aR,7R,10aR,10bR)-Methyl 2-(furan-3-yl)-6a,10b-dimethyl-9-((2-nitrobenzoyl)oxy)-4,10-dioxo-2,4,4a,5,6,6a,7,10,10a-decahydro-1H-benzo[f]isochromene-7-carboxylate], a half-maximal response (EC50) required 1900 ± 600 nM. The same measure, in the same setting: next, `COC(=O)[C@@H]1C=C(OC(=O)c2ccc(F)cc2)C(=O)[C@H]2[C@@]1(C)CC[C@H]1C(=O)O[C@H](c3ccoc3)C[C@]21C` [Series 2 Entry 10, (2S,4aR,6aR,7R,10aR,10bR)-Methyl 9-((4-fluorobenzoyl)oxy)-2-(furan-3-yl)-6a,10b-dimethyl-4,10-dioxo-2,4,4a,5,6,6a,7,10,10a,10b-decahydro-1H-benzo[f]isochromene-7-carboxylate]: 5 ± 1 nM; `COC(=O)[C@@H]1C=C(OC(=O)c2ccccc2Cl)C(=O)[C@H]2[C@@]1(C)CC[C@H]1C(=O)O[C@H](c3ccoc3)C[C@]21C` [Series 2 Entry 5, (2S,4aR,6aR,7R,10aR,10bR)-Methyl 9-((2-chlorobenzoyl)oxy)-2-(furan-3-yl)-6a,10b-dimethyl-4,10-dioxo-2,4,4a,5,6,6a,7,10,10a,10b-decahydro-1H-benzo[f]isochromene-7-carboxylate]: 290 ± 20 nM. Still for that read-out and setting: next, `COC(=O)[C@@H]1C=C(OC(=O)c2cc3ccccc3o2)C(=O)[C@H]2[C@@]1(C)CC[C@H]1C(=O)O[C@H](c3ccoc3)C[C@]21C` [Series 2 Entry 22, (2S,4aR,6aR,7R,10aR,10bR)-Methyl 9-((benzofuran-2-carbonyl)oxy)-2-(furan-3-yl)-6a,10-dimethyl-4,10-dioxo-2,4,4a,5,6,6a,7,10,10a,10bdecahydro-1H-benzo[f]isochromene-7-carboxylate]: 31 ± 9 nM.

The same test, now with this note: read-out: Series 2 EC50.
As to `COC(=O)[C@@H]1C=C(OC(=O)c2cccc(OC)c2)C(=O)[C@H]2[C@@]1(C)CC[C@H]1C(=O)O[C@H](c3ccoc3)C[C@]21C` [Series 2 Entry 15, (2S,4aR,6aR,7R,10aR,10bR)-Methyl 2-(furan-3-yl)-9-((3-methoxybenzoyl)oxy)-6a,10b-dimethyl-4,10-dioxo-2,4,4a,5,6,6a,7,10,10a,10b-decahydro-1H-benzo[f]isochromene-7-carboxylate], the EC50 amounted to 11 ± 2 nM.

With `COC(=O)[C@@H]1C=C(OC(=O)c2ccc(OC)cc2)C(=O)[C@H]2[C@@]1(C)CC[C@H]1C(=O)O[C@H](c3ccoc3)C[C@]21C` [Series 2 Entry 16, (2S,4aR,6aR,7R,10aR,10bR)-Methyl 2-(furan-3-yl)-9-((4-methoxybenzoyl)oxy)-6a,10b-dimethyl-4,10-dioxo-2,4,4a,5,6,6a,7,10,10a,10b-decahydro-1H-benzo[f]isochromene-7-carboxylate], the EC50 turned out to be 8 ± 3 nM. With `COC(=O)[C@@H]1C=C(OC(=O)c2ccc(C)cc2)C(=O)[C@H]2[C@@]1(C)CC[C@H]1C(=O)O[C@H](c3ccoc3)C[C@]21C` [Series 2 Entry 13, (2S,4aR,6aR,7R,10aR,10bR)-Methyl 2-(furan-3-yl)-6a,10b-dimethyl-9-((4-methylbenzoyl)oxy)-4,10-dioxo-2,4,4a,5,6a,7,10,10a,10b-decahydro-1H-benzo[f]isochromene-7-carboxylate], the EC50 amounted to 21.8 ± 0.3 nM.
